Data taken from ChEMBL document CHEMBL4033759, “Photoaffinity Labeling of the Human A2A Adenosine Receptor and Cross-link Position Analysis by Mass Spectrometry” (ACS Med Chem Lett, 2017).

What was measured:
[1] = molecular target: T1, Adenosine receptor A2a (Homo sapiens, UniProt P29274); assay: Binding affinity to C-terminal 10xHis and 1D4-tagged C-terminal-truncated human A2A adenosine receptor (1 to 316 residues) expressed in Pichia pastoris expression system at 2 nM after 1 hr by fluorescence polarization assay; conditions: read-out: Kd(app)
T1 sequence (P29274 whole entry, the tested form may be a part): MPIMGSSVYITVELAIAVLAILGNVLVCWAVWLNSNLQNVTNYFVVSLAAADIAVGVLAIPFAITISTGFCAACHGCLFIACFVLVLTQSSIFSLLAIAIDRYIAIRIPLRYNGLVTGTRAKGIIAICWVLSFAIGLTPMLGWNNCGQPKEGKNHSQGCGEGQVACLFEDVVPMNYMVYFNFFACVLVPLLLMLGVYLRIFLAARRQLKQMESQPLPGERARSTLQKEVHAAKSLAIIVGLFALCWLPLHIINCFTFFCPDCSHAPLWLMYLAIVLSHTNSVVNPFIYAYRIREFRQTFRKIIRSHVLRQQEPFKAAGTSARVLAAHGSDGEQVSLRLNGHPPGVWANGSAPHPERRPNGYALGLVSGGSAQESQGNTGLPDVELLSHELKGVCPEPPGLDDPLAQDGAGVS

[2] = molecular target: T1, Adenosine receptor A2a; assay: Binding affinity to C-terminal 10xHis and 1D4-tagged C-terminal-truncated human A2A adenosine receptor (1 to 316 residues) expressed in Pichia pastoris expression system at 1 nM after 1 hr by fluorescence polarization assay; conditions: read-out: Kd(app)
[3] = molecular target: T1, Adenosine receptor A2a; assay: Binding affinity to human A2A adenosine receptor expressed in HEK293 cells after 1 hr by fluorescence polarization assay; assay type: cell-based
[4] = molecular target: T1, Adenosine receptor A2a; assay: Binding affinity to C-terminal 10xHis and 1D4-tagged C-terminal-truncated human A2A adenosine receptor (1 to 316 residues) expressed in Pichia pastoris expression system at 8 nM after 1 hr by fluorescence polarization assay; conditions: read-out: Kd(app)
[5] = molecular target: T1, Adenosine receptor A2a; assay: Binding affinity to C-terminal 10xHis and 1D4-tagged C-terminal-truncated human A2A adenosine receptor (1 to 316 residues) expressed in Pichia pastoris expression system at 4 nM after 1 hr by fluorescence polarization assay; conditions: read-out: Kd(app)
[6] = molecular target: T1, Adenosine receptor A2a; assay: Displacement of MRS5346 from C-terminal 10xHis and 1D4-tagged C-terminal-truncated human A2A adenosine receptor (1 to 316 residues) expressed in Pichia pastoris expression system after 1 hr by fluorescence polarization assay

Row | Structure (SMILES) | Kd [1] | Kd [2] | Kd [3] | Kd [4] | Kd [5] | Ki [6]
1 | N=c1ccc2c(-c3ccc(C(=O)NCCNC(=O)COc4ccc(CCCn5ncc6c5nc(N)n5nc(-c7ccco7)nc65)cc4)cc3C(=O)O)c3ccc(N)c(S(=O)(=O)O)c3oc-2c1S(=O)(=O)O | 30.8 nM | 29 nM | 16.5 nM | 49.5 nM | 42.4 nM | –
2 | Nc1nc2nn(Cc3ccc(C4(C(F)(F)F)N=N4)cc3)cc2c2nc(-c3ccco3)nn12 | – | – | – | – | – | 39.7 nM
3 | Nc1nc2c(cnn2Cc2ccc(C3(C(F)(F)F)N=N3)cc2)c2nc(-c3ccco3)nn12 | – | – | – | – | – | 1520 nM
